Test results: US11072588B2, “Barbituric acid derivatives comprising cationic and lipophilic groups” (UNIVERSITETET I TROMSØ—NORGES ARKTISKE UNIVERSITET, priority 2017, dated 2021)
Converted amounts (≈) assume the structure as drawn.

How the values were obtained:
[1] = system: P. aeruginosa K34-7; assay: MIC, multi-resistant clinical isolate; type: cell-based, Pseudomonas aeruginosa
Method: (§1) Working solutions of the test derivatives were prepared with up to 100% DMSO and stored at −20° C. If necessary, the solutions were heated to 40-80° C. before testing to facilitate complete dissolution. Double-distilled water was used in all dilutions prepared. […] A microdilution susceptibility test was used for MIC determination according to Clinical and Laboratory Standards Institute, “Methods for Dilution Antimicrobial Sisceptibility Tests for Bacteria That Graw Aerobically”, Approved Standard M07-A9, edition 2012, with modifications as described by Igumnova et al (Bioorg Med Chem, 2016, 24 (22), 5884-5894).
(§2) Briefly, the bacterial inoculum was adjusted to approximately 2.5-3×10^4 cells/mL in Mueller-Hinton broth (MHB, Difco Laboratories, USA), and incubated in a ratio of 1:1 with test derivatives in polystyrene 96-well flat-bottom microplates (NUNC, Roskilde, Denmark). Positive growth control (without test derivatives) and negative control (without bacteria) were included. The reference antibiotic was oxytetracycline hydrochloride (Sigma Aldrich, Saint Louis, Mo., USA). The microplates were incubated in an EnVision microplate reader (Perkin-Elmer, Turku, Finland) placed in an incubator set to 35° C. for 48 h. The MIC value was defined as the lowest concentration of derivative resulting in no bacterial growth as determined by OD600 measurement. All derivatives were tested in three parallels.
(§3) The MIC was determined as explained above with some exceptions; working solutions of test derivatives were prepared from concentrated DMSO stocks stored at room temperature, the density of the bacterial inoculum was increased 40× to 1-1.2×10^6 cells/mL, enterococci were incubated in Brain Heart Infusion broth (BHIB, Difco Laboratories, USA), the microplates were incubated for 24 h, and the derivatives were tested in four parallels.

[2] = system: P. aeruginosa 50692520; assay: MIC, multi-resistant clinical isolate; type: cell-based, Pseudomonas aeruginosa
Method: as §1, §2, §3

[3] = system: P. aeruginosa K44-24; assay: MIC, multi-resistant clinical isolate; type: cell-based, Pseudomonas aeruginosa
Method: as §1, §2, §3

[4] = system: E. coli 50579417; assay: MIC, multi-resistant clinical isolate; type: cell-based, Escherichia coli
Method: as §1, §2, §3

[5] = system: E. coli 50676002; assay: MIC, multi-resistant clinical isolate; type: cell-based, Escherichia coli
Method: as §1, §2, §3

[6] = system: E. coli 50739822; assay: MIC, multi-resistant clinical isolate; type: cell-based, Escherichia coli
Method: as §1, §2, §3

[7] = system: E. coli 50639799; assay: MIC, multi-resistant clinical isolate; type: cell-based, Escherichia coli
Method: as §1, §2, §3

[8] = system: E. coli 50857972; assay: MIC, multi-resistant clinical isolate; type: cell-based, Escherichia coli
Method: as §1, §2, §3

[9] = system: panel of 30 multi-resistant clinical isolates of Gram-positive and Gram-negative bacteria; assay: MIC screening, ranges over the panel of clinical isolates; type: cell-based; settings: Enterococcus faecium, read-out: MIC values against the Gram-positive isolates of S. aurues and E. faecium
Method: as §1, §2, §3

[10] = system: E. faecium 50758899; assay: MIC, multi-resistant clinical isolate; type: cell-based, Enterococcus faecium
Method: as §1, §2, §3

[11] = system: E. faecium TUH50-22; assay: MIC, multi-resistant clinical isolate; type: cell-based, Enterococcus faecium
Method: as §1, §2, §3

[12] = system: E. faecium K36-18; assay: MIC, multi-resistant clinical isolate; type: cell-based, Enterococcus faecium
Method: as §1, §2, §3

[13] = system: E. faecium 50901530; assay: MIC, multi-resistant clinical isolate; type: cell-based, Enterococcus faecium
Method: as §1, §2, §3

[14] = system: E. faecium 50673722; assay: MIC, multi-resistant clinical isolate; type: cell-based, Enterococcus faecium
Method: as §1, §2, §3

[15] = system: human metastatic melanoma (A2058, ATCC CRL-11147) cells; assay: Anti-cancer activity against A2058 cells; type: cell-based; settings: A2058, read-out: Anti-cancer IC50
How it was run: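 A2058 melanoma cells seeded at 2,000/well overnight, then exposed to a concentration range in serum-free MEM (gentamycin, NEAA, pyruvate, glutamine) for 24 h (cytotoxicity stated as after 72 h exposure). MTS-type tetrazolium reagent added for 1 h; absorbance at 485 nm; % survival versus medium and Triton X-100 controls.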

[16] = system: S. aureus NCTC 10442; assay: MIC, multi-resistant clinical isolate; type: cell-based, Staphylococcus aureus
Method: as §1, §2, §3

[17] = system: S. aureus strain WIS; assay: MIC, multi-resistant clinical isolate; type: cell-based, Staphylococcus aureus
Method: as §1, §2, §3

[18] = system: S. aureus IHT 99040; assay: MIC, multi-resistant clinical isolate; type: cell-based, Staphylococcus aureus
Method: as §1, §2, §3

[19] = system: S. aureus strain 85/2082; assay: MIC, multi-resistant clinical isolate; type: cell-based, Staphylococcus aureus
Method: as §1, §2, §3

[20] = system: S. aureus N315; assay: MIC, multi-resistant clinical isolate; type: cell-based, Staphylococcus aureus
Method: as §1, §2, §3

[21] = Escherichia coli, read-out: Antimicrobial activity (MIC)
[22] = Enterococcus faecium, read-out: Antimicrobial activity (MIC)

In the case of `NCCCCN1C(=O)N(CCCCN)C(=O)C(Cc2ccc(F)c3ccccc23)(Cc2ccc(F)c3ccccc23)C1=O` [7(v), 1,3-bis(4-aminobutyl)-5,5-bis((4-fluoronaphtalen-1-yl)methyl)pyrimidin-2,4,6(1H,3H,5H)-trione], the MIC ([1]; Pseudomonas aeruginosa, K347, read-out: Antimicrobial activity (MIC)) is reported as 32 µg/mL (≈ 54.5 µM), the “selectivity index (EC50/MIC)” value ([1]; RBC EC50 / MIC, P. aeruginosa K34-7) is reported as “(5)” and the MIC ([2]; Pseudomonas aeruginosa, read-out: Antimicrobial activity (MIC)) is reported as 16 µg/mL (≈ 27.3 µM). The “selectivity index (EC50/MIC)” value ([2]; RBC EC50 / MIC) was “(10)”, the MIC ([3]; Pseudomonas aeruginosa, K4424, read-out: Antimicrobial activity (MIC)) was 32 µg/mL (≈ 54.5 µM) and the “selectivity index (EC50/MIC)” value ([3]; RBC EC50 / MIC) was “(5)”. For the same compound, the MIC [4, 21] was 16 µg/mL (≈ 27.3 µM), the “selectivity index (EC50/MIC)” value ([4]; RBC EC50 / MIC) was “(10)” and the MIC ([5]; Escherichia coli, 50676002, read-out: Antimicrobial activity (MIC)) was 16 µg/mL (≈ 27.3 µM). The “selectivity index (EC50/MIC)” value ([5]; RBC EC50 / MIC, E. coli 50676002) was “(10)”, the MIC [6, 21] was 16 µg/mL (≈ 27.3 µM) and the “selectivity index (EC50/MIC)” value ([6]; RBC EC50 / MIC) was “(10)”. The MIC [7, 21] was 16 µg/mL (≈ 27.3 µM), the “selectivity index (EC50/MIC)” value ([7]; RBC EC50 / MIC) was “(10)” and the MIC [8, 21] was 16 µg/mL (≈ 27.3 µM). The “selectivity index (EC50/MIC)” value ([8]; RBC EC50 / MIC) was “(10)”, the MIC [9] was 4 to 16 µg/mL (≈ 6.82 to 27.3 µM) and the MIC [10, 22] was 8 µg/mL (≈ 13.6 µM). For the same compound, the “selectivity index (EC50/MIC)” value ([10]; RBC EC50 / MIC) was “(20)”, the MIC ([11]; Enterococcus faecium, TUH5022, read-out: Antimicrobial activity (MIC)) was 4 µg/mL (≈ 6.82 µM) and the “selectivity index (EC50/MIC)” value ([11]; RBC EC50 / MIC) was “(40)”. The MIC ([12]; Enterococcus faecium, K3618, read-out: Antimicrobial activity (MIC)) was 8 µg/mL (≈ 13.6 µM), the “selectivity index (EC50/MIC)” value ([12]; RBC EC50 / MIC, E. faecium K36-18) was “(20)” and the MIC [13, 22] was 4 µg/mL (≈ 6.82 µM). The “selectivity index (EC50/MIC)” value ([13]; RBC EC50 / MIC) was “(40)”, the MIC [14, 22] was 8 µg/mL (≈ 13.6 µM) and the “selectivity index (EC50/MIC)” value ([14]; RBC EC50 / MIC) was “(20)”. For the same compound, the IC50 [15] was 1 µg/mL (≈ 1.7 µM), the “selectivity index (EC50/MIC)” value ([16]; RBC EC50 / MIC, S. aureus NCTC 10442) was “(20)” and the MIC ([16]; Staphylococcus aureus, NCTC10442, read-out: Antimicrobial activity (MIC)) was 8 µg/mL (≈ 13.6 µM). For the same compound, the “selectivity index (EC50/MIC)” value ([17]; RBC EC50 / MIC, S. aureus strain WIS) was “(20)”, the MIC ([17]; Staphylococcus aureus, read-out: Antimicrobial activity (MIC)) was 8 µg/mL (≈ 13.6 µM) and the “selectivity index (EC50/MIC)” value ([18]; RBC EC50 / MIC) was “(20)”. The MIC ([18]; Staphylococcus aureus, IHT99040, read-out: Antimicrobial activity (MIC)) was 8 µg/mL (≈ 13.6 µM), the “selectivity index (EC50/MIC)” value ([19]; RBC EC50 / MIC, S. aureus strain 85/2082) was “(40)” and the MIC ([19]; Staphylococcus aureus, 85/2082, read-out: Antimicrobial activity (MIC)) was 4 µg/mL (≈ 6.82 µM). The “selectivity index (EC50/MIC)” value ([20]; RBC EC50 / MIC, S. aureus N315) was “(20)” and the MIC ([20]; Staphylococcus aureus, N315, read-out: Antimicrobial activity (MIC)) was 8 µg/mL (≈ 13.6 µM).
